Data: patent publication US10981021B2, “Method for transiently disrupting a region of the blood-brain barrier of a human” (Carthera, priority 2016, dated 2021)
“And” between values parts separate entries of the source, which are not always exact repeats. Identical values can stand only once.

Tested on: recurrent glioblastoma (GBM)
Test: Clinical trial: monthly ultrasound BBB opening followed by carboplatin in recurrent glioblastoma patients
From the text: Patients experiencing recurrence (first, second or third) of a histologically proven de novo glioblastoma (GBM), previously treated with at least the first line standard of care were included (i.e. radiation with concurrent and adjuvant temozolomide). Patients had to have a growing contrast-enhancing tumor of less than 35 mm in diameter and be eligible for carboplatin-based chemotherapy.
The trial was designed as a dose escalation study (Simon et al. 1997) in which the US pressure was increased throughout the study starting at 0.5 and increasing to 1.1 MPa through 5 different “dose” levels (0.50, 0.65, 0.80, 0.95, and 1.1 MPa).
A minimum of three patients were included at each dose level. If none of the patients experienced a dose-limiting toxicity (DLT), the next dose level was opened. If one patient experienced a DLT, three additional patients were enrolled at that dose level.
Patients received US activation and BBB disruption every four weeks. The first treatment was performed at the initial “dose” level for the inclusion group, the second treatment at the next highest dose level, etc. Patients were treated monthly for up to a maximum of six treatments or until there was evidence of tumor progression.
All patients were assessed monthly using MR imaging, blood sampling, and clinical neurological evaluation. Two days prior to each planned ultrasound treatment, tumor status was evaluated on MRI according to the Response Assessment in Neuro-Oncology (RANO) Criteria (Wen et al. 2010). Progression-free survival (PFS) and overall survival (OS) were also assessed. Patients left the study if tumor progression was identified, which defined progression as an increase in tumor size of more than 25% or an increase in T2/FLAIR or as a neurological status degradation (Wen et al. 2010).
In the absence of tumor progression and significant toxicity, the BBB opening session followed by carboplatin injection was scheduled two days after. […]
Carboplatin dose (AUC, area under the curve) administration was calculated based on the Calvert formula taking into account renal function. […]

[1] = per patient, recurrent GBM, monthly US (0.5-1.1 MPa) + SonoVue BBB opening followed by i.v. carboplatin AUC 4-6

N.N.O=C([O-])C1(C(=O)[O-])CCC1.[Pt+2] [Carboplatin]
cerebral carboplatin-related toxicity (GBM patients, carboplatin perfusion started within 60 minutes after US BBB opening): No cerebral carboplatin-related toxicity was observed
Duration on-study [1]: 3 months (4×) and 2 months (6×) and 2.5 months and >5 months and >4 months and 4 months and still on study
Tumor Progression (MRI, FLAIR/ T1Gd) in the acoustic [1]: Yes (5×) and No (9×) and slight
